Laboratory results published in patent EP0461039B1, “Benzimidazole derivatives, process and intermediates for their preparation, their use as medicaments and pharmaceutical compositions containing them” (HOECHST MARION ROUSSEL, priority 1990, dated 1991).

Key:
[1] = tested on: angiotensine II sur la veine porte isolée; assay: Angiotensin II antagonist activity on the isolated portal vein; format: cell-based, rats mâles Wistar; conditions: rat portal vein ring, angiotensin II 3.10^-8M, compound added 15 minutes before stimulation, verapamil 1.10^-6M in the bath; read-out: CI50 (the source's name)
Procedure: La veine porte est prélevée, sur des rats mâles Wistar (350 g environ) (IFFA Crédo Franc) après dislocation cervicale, et mise rapidement dans une solution physiologique (voir ci-dessous) à température ambiante. Un anneau de 1 mm environ est monté dans un bain à organe isolé contenant 20 ml de la solution physiologique suivante (composition en mM : NaCl 118,3 - KCl 4,7 - MgSO4 1,2 - KH2PO4 1,2 - NaHCO3 25 - glucose 11,1 - CaCl2 2,5) le milieu est maintenu à 37°C et oxygéné par un mélange O2 95 %, CO2 5 %. La tension initiale imposée est de 1 g, les anneaux sont laissés au repos pendant 60 à 90 minutes. Afin d'éviter les contractions spontanées, du vérapamil est ajouté au bain d'incubation (1.10^-6M).
A la fin de la période de repos l'angiotensine II (hypertensine Ciba) 3.10^-8M est ajoutée dans le bain d'incubation et laissée au contact de la préparation pendant 1 minute. Cette opération est répétée chaque 30 minutes, le tissu étant lavé 3 ou 4 fois entre deux stimulations à l'angiotensine. Le composé à étudier est introduit dans le bain 15 minutes avant une nouvelle stimulation par l'angiotensine. Des concentrations croissantes de la molécule étant appliquées, une CI50 (concentration qui produit une inhibition de 50 % de la réponse à l'angiotensine) peut être calculée, celle-ci est exprimée en nanomoles.

[2] = molecular target: T1, récepteur de l'angiotensine II (Rattus norvegicus, UniProt P25095); assay: Angiotensin II receptor binding test (displacement of 125I angiotensin II, rat liver membranes); conditions: fresh rat liver membrane preparation, incubation at 25°C for 150 minutes, read-out: CI50 (the source's name)
T1 construct: une préparation membranaire fraîche obtenue à partir de foie de rat; from tissue; host or cells: rat liver membranes
T1 sequence (P25095 1-359): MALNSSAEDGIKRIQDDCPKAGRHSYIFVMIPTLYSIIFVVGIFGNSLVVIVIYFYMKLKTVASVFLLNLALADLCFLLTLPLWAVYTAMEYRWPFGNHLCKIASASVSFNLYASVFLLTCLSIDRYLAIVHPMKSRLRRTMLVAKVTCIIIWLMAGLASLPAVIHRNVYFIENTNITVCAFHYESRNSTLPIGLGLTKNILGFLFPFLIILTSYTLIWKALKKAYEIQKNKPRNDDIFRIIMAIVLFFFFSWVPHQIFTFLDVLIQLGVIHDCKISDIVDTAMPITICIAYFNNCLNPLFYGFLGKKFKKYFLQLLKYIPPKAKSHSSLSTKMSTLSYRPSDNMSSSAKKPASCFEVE
Procedure: On utilise une préparation membranaire fraîche obtenue à partir de foie de rat. Le tissu est broyé au polytron dans un tampon Tris 50 mM pH 7,4 le broyage est suivi de 3 centrifugations à 30 000 g 15' avec reprises intermédiaires des culots dans le tampon Tris pH 7,4.
Les derniers culots sont remis en suspension dans un tampon d'incubation (Tris 20 mM, NaCl 135 mM, KCl 10 mM, glucose 5 mM, MgCl2 10 mM, fluorure de phényl méthyl sulfonyle 0,3 mM, bacitracine 0,1 mM, bis(triméthylsilyl) acétamide 0,2 %).
On répartit des fractions aliquotes de 2 ml dans des tubes à hémolyse et ajoute de la ^125I angiotensine II (25 000 DPM/tube) et le produit à étudier. (Le produit est d'abord testé à 3 x 10^-5M en triple). Lorsque le produit testé déplace de plus de 50 % la radioactivité liée spécifiquement au récepteur, il est testé à nouveau selon une gamme de 7 concentrations afin de déterminer la concentration qui inhibe de 50 % la radioactivité liée spécifiquement au récepteur. On détermine ainsi la concentration inhibitrice 50 %).
La liaison non spécifique est déterminée par addition d'un produit de référence soit le produit de l'exemple 94 du brevet européen 0253310 à 10^-5M (en triple). On incube à 25°C pendant 150 minutes, remet au bain-marie à 0°C, 5 minutes, filtre sous vide, rince au tampon Tris pH 7,4 et compte la radioactivité en présence du scintillant Triton. […]

- IC50 [1]: 9.5 nM
- IC50 [2]: 52 nM
Compound: CCCCc1nc2cccc(C(=O)O)c2n1Cc1ccc(-c2ccccc2C(=O)O)cc1 [Exemple 2, Acide 2-butyl 1-[(2'-carboxybiphényl-4-yl)méthyl] 1H-benzimidazole-7-carboxylique]
